{"source": "patent US20260256775A1", "about": "“METHOD FOR TREATING MENTAL DISEASES” (SHANGHAI RAISING PHARMACEUTICAL CO., LTD., priority 2022, published 2026)", "key": {"[1]": {"system": "Chronic Unpredictable Mild Stress (CUMS) Depressive Rats", "assay": "Forced swimming test (FST) in CUMS model rats", "conditions": "8th week of CUMS, 6-minute forced swimming, trazodone 10 mg/kg/day ig, x ± SD"}, "[2]": {"system": "Chronic Unpredictable Mild Stress (CUMS) Depressive Rats", "assay": "Sucrose preference test (SPT) in CUMS model rats", "conditions": "trazodone 10 mg/kg/day ig, x ± SD; for SPT After 2 Weeks of Treatment (%): 5th week of CUMS; for SPT After 4 Weeks of Treatment (%): 7th week of CUMS"}, "[3]": {"system": "Chronic Unpredictable Mild Stress (CUMS) Depressive Rats", "assay": "Elevated plus maze (EPM) test in CUMS model rats", "conditions": "9th week of CUMS, 5-minute EPM, trazodone 10 mg/kg/day ig, x ± SD"}}, "data": [{"smiles": "O=c1n(CCCN2CCN(c3cccc(Cl)c3)CC2)nc2ccccn12", "note": "[Trazodone]", "values": [{"measurement": "Immobility Time in FST After 5 Weeks of Treatment (s)", "setting": "[1]; n=8", "result": "82.28 ± 21.64 ^ s"}, {"measurement": "Immobility Time in FST After 5 Weeks of Treatment (s)", "setting": "[1]; n=8, listed as trazodone", "result": "reduced"}, {"measurement": "SPT After 2 Weeks of Treatment (%)", "setting": "[2]; n=8", "result": "74.00 ± 11.22", "unit": "%"}, {"measurement": "SPT After 2 Weeks of Treatment (%)", "setting": "[2]; n=8, listed as trazodone", "result": "no significant difference"}, {"measurement": "SPT After 4 Weeks of Treatment (%)", "setting": "[2]; n=8", "result": "84.55 ± 16.77 ^ %"}, {"measurement": "SPT After 4 Weeks of Treatment (%)", "setting": "[2]; n=8, listed as trazodone", "result": "significantly increased"}, {"measurement": "Time Spent Exploring the Open Arms in the 6th Week of Treatment (s)", "setting": "[3]; n=8", "result": "4.90 ± 2.06 ^ s"}, {"measurement": "Time Spent Exploring the Open Arms in the 6th Week of Treatment (s)", "setting": "[3]; n=8, listed as trazodone", "result": "no significant change"}]}]}
